Assay results: US7157107B2, “Method for producing eggs with low cholesterol level” (priority 2004, dated 2007)
Read-outs that look alike come from different tables or passages of the source.

Assays:
Hy-line laying hens = assay: Monacolin K residue remained in eggs (HPLC); type: in vivo, hen; settings: hens fed basal diet containing 0.056% monacolin K (highest red mold rice content) for 42 days, FIG. 3
Experimental: The method for determining whether there is any monacolin K residue remained comprised the following steps. 20 mL acetonitrile-water (9:1, v/v) is added into 10 grams of egg samples (including yolk samples and albumen samples which are separated from eggs laid by hens fed with red mold rice of the highest content for 42 days), vibrated for 60 min through ultrasonic vibration, stirred and mixed for 15 min. Then, after the solid is separated off through a Whatman No. 1 filter paper, equal volume of acetonitrile is added into a 4 mL egg sample, filtered via a filter membrane of 0.45 μm pore size, and analyzed thgrough HPLC. The operating conditions for performing HPLC analysis were described as above.

hens = settings: cited from earlier work

Q: For CC[C@H](C)C(=O)O[C@H]1C[C@@H](C)C=C2C=C[C@H](C)[C@H](CC[C@@H]3C[C@@H](O)CC(=O)O3)[C@H]21 [lovastatin], which “Monacolin K residue in eggs (yolk and egg white)” value (Hy-line laying hens) is on record?
A: no monacolin K residue

Q: And the “Lowering of egg cholesterol concentration” value (“Lowering” below) (hens; 0.0005% lovastatin, hens of 30 weeks old, feed for 12 weeks (Mori et al.))?
A: 7.5%

Q: What about the “Lowering” value (hens; 0.0015% lovastatin, hens of 30 weeks old, feed for 12 weeks (Mori et al.)) of the same compound?
A: 12.7%

Q: And the “Decrease in egg cholesterol concentration” value (hens; 0.0035% lovastatin, hens of 69 weeks old, feed for 5 weeks (Luhman et al.))?
A: no significant decrease

Q: What about the “Lowering” value (hens; 0.03% lovastatin, hens of 18 weeks old, feed for 5 weeks (Elkin and Yan)) of the same compound?
A: 4%

Q: What about the “Lowering” value (hens; 0.06% lovastatin, hens of 18 weeks old, feed for 5 weeks (Elkin and Yan)) of the same compound?
A: 7%

Q: What about the “Decrease of egg cholesterol” value (hens; 0.2407% lovastatin in feed for 9 days (Elkin and Rogler)) of the same compound?
A: 13%
